Measured values as given in the supplement of paper PMC10307832.

How the values were obtained:
Assay in all cases: relative viability (nuclei count vs DMSO), 5 days (fraction); higher = more cells survive
XMD8-85 + Palbociclib = compound: CN1CCN(CC1)C2=CC(=C(C=C2)NC3=NC=C4C(=N3)N(C5=CC=CC=C5C(=O)N4C)C)OC [XMD8-85] + CC(=O)c1c(C)c2cnc(Nc3ccc(N4CCNCC4)cn3)nc2n(C2CCCC2)c1=O [Palbociclib] (partner 0.5 µM)
In short: (§1)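 After 5 days of treatment, lung cancer cells in 1536-well plates were fixed and stained in a single step (final 0.05% Triton X-100, 1% formaldehyde, 1 ug/ml Hoechst) and their nuclei counted on 4× images. Treatment had been applied by pin tool the day after seeding as one drug alone or as a fixed anchor-drug dose with five library-drug doses (not always all listed) in √10 steps. Relative viability is the nuclei count of treated wells divided by that of vehicle wells, and values are medians of duplicate plates.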

XMD8-85 + Luminespib = compound: CN1CCN(CC1)C2=CC(=C(C=C2)NC3=NC=C4C(=N3)N(C5=CC=CC=C5C(=O)N4C)C)OC [XMD8-85] + CCNC(=O)c1noc(-c2cc(C(C)C)c(O)cc2O)c1-c1ccc(CN2CCOCC2)cc1 [Luminespib] (partner 0.01 µM)
In short: as §1

XMD8-85 + AZD7762 = compound: CN1CCN(CC1)C2=CC(=C(C=C2)NC3=NC=C4C(=N3)N(C5=CC=CC=C5C(=O)N4C)C)OC [XMD8-85] + NC(=O)Nc1cc(-c2cccc(F)c2)sc1C(=O)N[C@H]1CCCNC1 [AZD7762] (partner 0.2 µM)
In short: as §1

4EGI-1 + Palbociclib = compound: O=C(O)C(Cc1ccccc1[N+](=O)[O-])=NNc1nc(-c2ccc(Cl)c(Cl)c2)cs1 (mixture of isomers) [4EGI-1] + CC(=O)c1c(C)c2cnc(Nc3ccc(N4CCNCC4)cn3)nc2n(C2CCCC2)c1=O [Palbociclib] (partner 0.5 µM)
In short: as §1

| Cell Line | relative viability (XMD8-85 + Palbociclib; first compound 0.08 µM) | relative viability (XMD8-85 + Palbociclib; first compound 0.253 µM) | relative viability (XMD8-85 + Palbociclib; first compound 0.8 µM) | relative viability (XMD8-85 + Palbociclib; first compound 2.53 µM) | relative viability (XMD8-85 + Palbociclib; first compound 8 µM) | relative viability (XMD8-85 + Luminespib; first compound 0.08 µM) | relative viability (XMD8-85 + Luminespib; first compound 0.253 µM) | relative viability (XMD8-85 + Luminespib; first compound 0.8 µM) | relative viability (XMD8-85 + Luminespib; first compound 2.53 µM) | relative viability (XMD8-85 + Luminespib; first compound 8 µM) | relative viability (XMD8-85 + AZD7762; first compound 0.08 µM) | relative viability (XMD8-85 + AZD7762; first compound 0.253 µM) | relative viability (XMD8-85 + AZD7762; first compound 0.8 µM) | relative viability (XMD8-85 + AZD7762; first compound 2.53 µM) | relative viability (XMD8-85 + AZD7762; first compound 8 µM) | relative viability (4EGI-1 + Palbociclib; first compound 0.5 µM) | relative viability (4EGI-1 + Palbociclib; first compound 5 µM) | relative viability (4EGI-1 + Palbociclib; first compound 15.81 µM) | relative viability (4EGI-1 + Palbociclib; first compound 50 µM) | relative viability (4EGI-1 + Palbociclib; first compound 1.581 µM) |
| --- | --- | --- | --- | --- | --- | --- | --- | --- | --- | --- | --- | --- | --- | --- | --- | --- | --- | --- | --- | --- |
| NCI-H1944 | 0.319 | 0.319 | 0.362 | 0.33 | 0.313 | 0.658 | 0.838 | 0.751 | 0.491 | 0.507 | 0.585 | 0.585 | 0.475 | 0.543 | 0.462 | 0.404 | 0.33 | 0.273 | 0.252 | – |
| NCI-H1623 | – | – | – | – | – | 0.489 | 0.418 | 0.58 | 0.42 | 0.489 | – | – | – | – | – | – | – | – | – | – |
| NCI-H1563 | – | – | – | – | – | 0.608 | 0.488 | 0.505 | 0.536 | 0.567 | – | – | – | – | – | – | – | – | – | – |
| NCI-H1666 | 0.679 | 0.656 | 0.606 | 0.632 | 0.645 | 1 | 1.03 | 0.986 | 1.04 | 0.877 | 0.836 | 0.87 | – | 1.01 | 0.694 | 0.673 | 0.633 | 0.641 | 0.598 | 0.693 |
| LCLC-103H | 0.483 | 0.445 | 0.489 | 0.484 | 0.405 | 0.96 | 0.941 | 0.864 | 1.12 | 0.704 | 0.769 | 0.825 | 0.811 | 0.851 | 0.781 | 0.495 | 0.503 | 0.457 | 0.347 | 0.49 |
| NCI-H1734 | 0.315 | 0.329 | – | 0.384 | 0.281 | 0.176 | 0.173 | 0.213 | 0.205 | 0.151 | 0.562 | 0.534 | 0.529 | 0.626 | – | 0.395 | 0.373 | 0.38 | 0.246 | 0.281 |
| HOP-62 | 0.512 | 0.463 | – | 0.378 | 0.246 | 0.932 | – | 0.911 | 0.762 | 0.683 | 0.497 | 0.708 | 0.523 | – | 0.421 | 0.449 | 0.489 | 0.505 | 0.319 | 0.416 |
| HCC-15 | 0.728 | 0.705 | 0.751 | 0.708 | 0.619 | 0.481 | 0.479 | 0.295 | 0.336 | 0.302 | 1.16 | 1.06 | 1.13 | 1.12 | 1.02 | 0.677 | 0.788 | 0.679 | 0.292 | 0.747 |
| NCI-H2405 | 0.527 | – | 0.543 | 0.528 | 0.509 | 0.63 | 0.727 | 0.625 | 0.704 | 0.643 | 0.636 | 0.741 | 0.73 | 0.708 | 0.467 | 0.606 | 0.508 | 0.55 | 0.329 | – |
| NCI-H1793 | – | 0.251 | 0.319 | 0.38 | 0.208 | 0.144 | 0.182 | 0.146 | 0.201 | 0.23 | – | 0.408 | 0.483 | 0.344 | 0.413 | 0.339 | 0.329 | 0.235 | 0.205 | 0.333 |
